In paper PMC13505187, “Fragment-Based Discovery of Fenamic Acids as Pan-Species Inhibitors of the Soluble Epoxide Hydrolase Phosphatase Domain” (ACS Chemical Biology, 2026) one finds IC50 data, which are given here for one molecule.

Holding throughout (assay type): biochemical
One test deals with T1, human sEH-NTD (Homo sapiens, UniProt P34913).
T1 construct: made in house
T1 sequence (P34913 1-224 limits assumed): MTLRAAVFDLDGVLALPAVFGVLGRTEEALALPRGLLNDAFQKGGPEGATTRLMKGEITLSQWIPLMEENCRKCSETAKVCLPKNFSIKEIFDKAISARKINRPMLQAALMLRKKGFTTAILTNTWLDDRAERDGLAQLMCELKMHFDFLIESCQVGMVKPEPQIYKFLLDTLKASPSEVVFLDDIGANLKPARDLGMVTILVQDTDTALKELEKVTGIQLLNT
The test is described as follows: FDP-based phosphatase assay, isolated N-terminal domain. The following applies: phosphatase activity of the isolated N-terminal domain, FDP substrate, pH 5.75; mean ± SD, n = 3. As to the method:
(§1) The FDP assay was performed as published previously by Klingler et al. using frozen sEH-PD as well as full-length human, mouse, and rat sEH. In brief, the assay was performed in a black 96-well microplate in which 1 μL of compound in DMSO (or DMSO only in the case of the positive control) was mixed with 89 μL of protein solution (final concentration of 0.1 μM for sEH-PD, full-length human sEH, and full-length rat sEH and 0.01 μM for full-length mouse sEH) in phosphatase assay buffer (50 mM acetate, 10 mM MgCl2, pH 5.75) supplemented with 0.01% w/v Triton X-100. For the blank, assay buffer without protein was used. The plates were incubated at rt for 30 min to allow binding of the inhibitor. To start the reaction, 10 μL of FDP solution (10 μM final concentration) in assay buffer was added, and the fluorescence changes (λex = 485 nm, λem = 525 nm) were detected at 30 time points over the duration of 30 min using an Infinite F200 PRO plate reader (Tecan, Crailsheim, Germany). All samples were measured in triplicate. The percent inhibition was calculated relative to the activities of the blank well (without protein) and positive control well (without inhibitor).

The target of a further test is T2, human sEH-FL (P) (Homo sapiens, UniProt P34913).
T2 construct: The full-length human sEH was previously published by Lukin et al; made in house
T2 sequence (P34913 1-555): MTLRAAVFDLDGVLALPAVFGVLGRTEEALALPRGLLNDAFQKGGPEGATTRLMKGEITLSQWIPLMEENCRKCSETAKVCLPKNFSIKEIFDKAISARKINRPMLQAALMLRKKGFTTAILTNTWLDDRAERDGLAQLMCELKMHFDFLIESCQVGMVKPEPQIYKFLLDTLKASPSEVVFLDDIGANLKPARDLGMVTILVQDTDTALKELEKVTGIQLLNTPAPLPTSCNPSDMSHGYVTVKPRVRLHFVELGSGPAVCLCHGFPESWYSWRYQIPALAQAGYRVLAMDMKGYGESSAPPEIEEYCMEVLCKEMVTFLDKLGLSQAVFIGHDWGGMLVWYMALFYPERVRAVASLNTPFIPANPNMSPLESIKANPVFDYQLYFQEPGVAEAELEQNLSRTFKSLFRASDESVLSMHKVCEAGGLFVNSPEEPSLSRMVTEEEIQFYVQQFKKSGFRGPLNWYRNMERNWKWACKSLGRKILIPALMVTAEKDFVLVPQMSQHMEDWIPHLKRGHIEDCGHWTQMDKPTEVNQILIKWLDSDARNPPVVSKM
The test is described as follows: FDP-based phosphatase assay, full-length sEH. The settings on record: phosphatase activity of the full-length sEH protein, FDP substrate; mean ± SD, n = 3. As to the method: as §1

For another test, the target named is T3, rat sEH-FL (P) (Rattus norvegicus, UniProt P80299).
T3 construct: using frozen sEH-PD as well as full-length human, mouse, and rat sEH
T3 sequence (P80299 1-554): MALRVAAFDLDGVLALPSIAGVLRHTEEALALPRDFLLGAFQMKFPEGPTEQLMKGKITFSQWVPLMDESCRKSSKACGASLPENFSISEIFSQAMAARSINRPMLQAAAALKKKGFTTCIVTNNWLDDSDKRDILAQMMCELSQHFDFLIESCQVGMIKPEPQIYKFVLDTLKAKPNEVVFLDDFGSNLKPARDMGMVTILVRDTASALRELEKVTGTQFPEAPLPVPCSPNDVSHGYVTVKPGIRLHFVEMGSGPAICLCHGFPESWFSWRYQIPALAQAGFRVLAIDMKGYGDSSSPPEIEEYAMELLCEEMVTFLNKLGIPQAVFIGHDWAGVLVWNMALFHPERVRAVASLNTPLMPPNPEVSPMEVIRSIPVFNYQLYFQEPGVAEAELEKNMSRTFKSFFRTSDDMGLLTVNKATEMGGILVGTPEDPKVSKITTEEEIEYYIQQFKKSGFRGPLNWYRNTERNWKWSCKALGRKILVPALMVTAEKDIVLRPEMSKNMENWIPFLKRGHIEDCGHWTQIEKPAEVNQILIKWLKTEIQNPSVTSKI
The test can be described thus: FDP-based phosphatase assay, full-length sEH. The following applies: phosphatase activity of the full-length sEH protein, FDP substrate; mean ± SD, n = 3. Here is the method:
as §1

In the next test the target is T4, human sEH-FL (H) (Homo sapiens, UniProt P34913).
T4 construct: The full-length human sEH was previously published by Lukin et al; made in house
T4 sequence (P34913 1-555): T2 sequence (P34913 1-555)
The test is described as follows: PHOME-based hydrolase assay, full-length sEH. The following applies: hydrolase activity of the full-length sEH protein, PHOME substrate; mean ± SD, n = 3.

Description for human sEH-FL (H): The fluorescence-based sEH hydrolase activity assay was performed as described previously in a 96-well format with some minor modifications. In short, full-length sEH (3 nM final concentration for all tested proteins) was dissolved in hydrolase assay buffer (Bis-Tris buffer, pH 7) supplemented with 0.1 mg mL^–1 BSA as well as Triton-X 100 to a final concentration of 0.01%. Protein solution (89 μL) was incubated with 1 μL of different concentrations of compounds (final DMSO concentration 1%) for 30 min at rt. The reaction was started by addition of 10 μL of a cyano­(6-methoxy-2-naphthalenyl)­methyl 3-phenyloxiran-2-ylacetate (PHOME) solution (final concentration of 50 μM). Hydrolysis of the nonfluorescent substrate by sEH to release fluorescent 6-methoxynaphthaldehyde was measured (λex = 330 nm, λem = 465 nm) using a Tecan Infinite F200PRO plate reader. The reaction was monitored over a duration of 45 min (one point every minute). A blank control (no protein and no compound) and a positive control (no compound) were carried out as well. All measurements were performed in triplicate.

The term IC50 denotes the concentration that inhibits the measured activity by half. Regarding `O=C(O)CCCc1nc(-c2ccc(Cl)c(Cl)c2)c(-c2ccccc2)o1` [Compound 2], the half-maximal inhibitory concentration (IC50) turned out to be 0.058 ± 0.005 µM against human sEH-NTD, 4 ± 1 µM at human sEH-FL (P), 2.8 ± 2.2 µM against rat sEH-FL (P) and 9.5 ± 0.5 µM against human sEH-FL (H).
